Key:
[1] = log D7.2-7.4 by shake-flask method; type: physicochemical; details: overall value from HPLC and shake-flask determinations; read-out: experimental log D7.0–7.4
Experimental: To clarify these findings, we determined the ligand distribution coefficients for [^18/19F]IV experimentally, under physiological pH conditions in solid-liquid phase systems via retention on RP-HPLC, and in liquid-liquid phase systems by conventional shake-flask method. […] All in one, an experimental log D7.0–7.4 value of ~2.7 promised a good potential for brain uptake of [^18F]IV in vivo, attended by low unspecific binding.
Log D7.2–7.4 values of [^18F]IV were determined using a conventional shake-flask method (multiple distribution in triplicates). Measurements of distribution coefficients were performed in 3 series at 21 °C between n-octanol and three aqueous buffer solutions, physiological phosphate-saline (0.1 M Na3PO4, 0.15 M NaCl, pH 7.2), phosphate buffer (KH2PO4/Na2HPO4•2H2O, 50 mM, pH 7.2) or TRIS-HCl buffer (50 mM, pH 7.4 at 21 °C). Solutions of [^18F]IV (2–5 MBq) in MeCN, MeOH (100 μL) or in 5% ethanol/0.9% NaCl (10 μL) were added to a 15 mL polypropylene tube (n = 3 per buffer system) containing a two-layer system of a selected aqueous solution (3 mL) and n-octanol (3 mL). […] Radioactivity of these samples was quantified using a calibrated γ-counter (Wallac WIZARD, Perkin Elmer, Waltham, MA, USA). […] Distribution coefficients and log D7.2–7.4 values of [^18F]IV were calculated with Microcal^TM Origin (6.0, Microcal Software, Inc., Northhampton, MA, USA).

PDE10A = test: In vivo blocking study (pre-injection of PDE10A inhibitor); parameters: species or system mice
Experimental: The observed slightly increase in the uptake of radioactivity in most organs might be caused by an increase in the free fraction of [^18F]IV in plasma or changes in physiological parameters such as blood flow due to high concentrations of the blocking compounds.
Specificity of brain and in particular striatal uptake of [^18F]IV was investigated in blocking studies by intraperitoneal injection of 10 mg/kg of I [31] […] (n = 3), dissolved in 200 µL saline at 10 min before the radiotracer. Mice were sacrificed at 60 min p.i., and the radioligand uptake was determined as described above. Data listed in table 2 are given as mean values ± standard deviation (SD).

[2] = blocking with 10 mg/kg I, 60 min p.i.
[3] = blocking with 10 mg/kg MP-10, 60 min p.i.

COc1cc2c(N3CC[C@@H](Oc4cnc5ccccc5n4)C3)ncnc2cc1OCC[18F] [[^18F]IV, (R)-7-(2-[^18F]Fluoroethoxy)-6-methoxy-4-(3-(quinoxalin-2-yloxy)pyrrolidin-1-yl)quinazoline]
logD [1]: ~2.7
change in accumulated radioactivity in PDE10A-expressing organs after pre-injection of MP-10 or compound I (PDE10A; 10 mg/kg i.p. 10 min before radiotracer, 60 min p.i., p > 0.05): no significant changes
18F uptake, Adrenals (PDE10A; [2]): 51.1 ± 17.9 % ID/g
18F uptake, Bladder (PDE10A; [2]): 2.20 ± 0.49 % ID/g
18F uptake, Blood (PDE10A; [2]): 1.72 ± 0.16 % ID/g
18F uptake, Brain (PDE10A; [2]): 1.13 ± 0.17 % ID/g
18F uptake, Colon (PDE10A; [2]): 1.07 ± 0.22 % ID/g
18F uptake, Femurs (PDE10A; [2]): 1.62 ± 0.72 % ID/g
18F uptake, Femurs (fl.) (flushed) (PDE10A; [2]): 0.81 ± 0.13 % ID/g
18F uptake, Gonads (PDE10A; [2]): 3.30 ± 0.29 % ID/g
18F uptake, Heart (PDE10A; [2]): 2.30 ± 0.22 % ID/g
18F uptake, Intestine (PDE10A; [2]): 44.3 ± 9.58 % ID/g
18F uptake, Kidneys (PDE10A; [2]): 4.01 ± 0.54 % ID/g
18F uptake, Liver (PDE10A; [2]): 12.9 ± 1.08 % ID/g
18F uptake, Lungs (PDE10A; [2]): 2.62 ± 0.44 % ID/g
18F uptake, Muscles (PDE10A; [2]): 1.27 ± 0.25 % ID/g
18F uptake, Pancreas (PDE10A; [2]): 2.25 ± 0.26 % ID/g
18F uptake, Plasma (PDE10A; [2]): 2.70 ± 0.24 % ID/g
18F uptake, Skin (PDE10A; [2]): 2.26 ± 0.82 % ID/g
18F uptake, Spleen (PDE10A; [2]): 2.48 ± 0.68 % ID/g
18F uptake, Stomach (PDE10A; [2]): 13.8 ± 1.65 % ID/g
18F uptake, Striatum (PDE10A; [2]): 1.28 ± 0.27 % ID/g
18F uptake, Thymus (PDE10A; [2]): 2.22 ± 0.08 % ID/g
18F uptake, Urine (PDE10A; [2]): 18.0 ± 9.26 % ID/g
18F uptake, Adrenals (PDE10A; [3]): 36.0 ± 9.51 % ID/g
18F uptake, Bladder (PDE10A; [3]): 2.93 ± 0.51 % ID/g
18F uptake, Blood (PDE10A; [3]): 1.85 ± 0.50 % ID/g
18F uptake, Brain (PDE10A; [3]): 1.30 ± 0.20 % ID/g
18F uptake, Colon (PDE10A; [3]): 1.78 ± 0.78 % ID/g
18F uptake, Femurs (PDE10A; [3]): 1.73 ± 0.58 % ID/g
18F uptake, Femurs (fl.) (flushed) (PDE10A; [3]): 0.92 ± 0.23 % ID/g
18F uptake, Gonads (PDE10A; [3]): 4.10 ± 1.41 % ID/g
18F uptake, Heart (PDE10A; [3]): 2.89 ± 0.42 % ID/g
18F uptake, Intestine (PDE10A; [3]): 14.8 ± 4.16 % ID/g
18F uptake, Kidneys (PDE10A; [3]): 5.87 ± 1.56 % ID/g
18F uptake, Liver (PDE10A; [3]): 17.7 ± 3.87 % ID/g
18F uptake, Lungs (PDE10A; [3]): 2.95 ± 0.86 % ID/g
18F uptake, Muscles (PDE10A; [3]): 1.29 ± 0.37 % ID/g
18F uptake, Pancreas (PDE10A; [3]): 3.19 ± 0.91 % ID/g
18F uptake, Plasma (PDE10A; [3]): 3.34 ± 1.00 % ID/g
18F uptake, Skin (PDE10A; [3]): 2.43 ± 0.44 % ID/g
18F uptake, Spleen (PDE10A; [3]): 3.00 ± 0.79 % ID/g
18F uptake, Stomach (PDE10A; [3]): 14.6 ± 7.83 % ID/g
18F uptake, Striatum (PDE10A; [3]): 1.38 ± 0.30 % ID/g
18F uptake, Thymus (PDE10A; [3]): 2.55 ± 0.62 % ID/g
18F uptake, Urine (PDE10A; [3]): 14.7 ± 7.17 % ID/g

— publication PMC3763632, “Radiosynthesis and Radiotracer Properties of a 7-(2-[^18F]Fluoroethoxy)-6-methoxypyrrolidinylquinazoline for Imaging of Phosphodiesterase 10A with PET” (Pharmaceuticals, 2012)
